What was measured:
[1] = target: T1, GST-tagged Tankyrase-1 (1023-1327 aa) (Homo sapiens, UniProt O95271); assay: Tankyrase 1 autoparsylation HTRF enzyme assay; format: biochemical; details: HTRF autoparsylation, 90 min at 30° C; read-out: IC50 TNKS1 enzyme assay
T1 construct: GST-tagged Tankyrase-1 (1023-1327 aa)
Description: (§1) Biochemical Activity Testing of Tankyrase 1 and 2: Autoparsylation Assay
(§2) The autoparsylation assay is run in two steps: the enzymatic reaction in which GST-tagged Tankyrase-1, resp Tankyrase-2 transferred biotinylated ADP-ribose to itself from biotinylated NAD as co-substrate and the detection reaction where a time resolved FRET between cryptate labelled anti-GST bound to the GST tag of the enzyme and Xlent® labelled-streptavidin bound the biotin-parsylation residue is analysed. The autoparsylation activity was detectable directly via the increase in HTRF signal.
(§3) The autoparsylation assay is performed as 384-well HTRF® (Cisbio, Codolet, France) assay format in Greiner low volume nb 384-well microtiter plates and is used for high throughput screen. 250 nM GST-tagged Tankyrase-1 (1023-1327 aa), respectively about 250 nM GST-tagged Tankyrase-2 (873-1166 aa) and 5 μM bio-NAD (Biolog, Life science Inst., Bremen, Germany) as co-substrate are incubated in a total volume of 5 μl (50 mM HEPES, 4 mM Mg-chloride, 0.05% Pluronic F-68, 1.4 mM DTT, 0.5% DMSO, pH 7.7) in the absence or presence of the test compound (10 dilution concentrations) for 90 min at 30° C. The reaction is stopped by the addition of 1 μl 50 mM EDTA solution. 2 μl of the detection solution (1.6 μM SA-Xlent® (Cisbio, Codolet, France), 7.4 nM Anti-GST-K® (Eu-labelled anti-GST, Cisbio, Codolet, France) in 50 mM HEPES, 800 mM KF, 0.1° A. BSA, 20 mM EDTA, 0.1% CHAPS, pH 7.0) are added. After 1 h incubation at room temperature the HTRF is measured with an Envision multimode reader (Perkin Elmer LAS Germany GmbH) at excitation wavelength 340 nm (laser mode) and emission wavelengths 615 nm and 665 nm. The ratio of the emission signals is determined. The full value used is the inhibitor-free reaction. The pharmacological zero value used is XAV-939 (Tocris) in a final concentration of 5 μM. The inhibitory values (IC50) are determined using either the program Symyx Assay Explorer® or Condosseo® from GeneData.

[2] = target: T2, GST-tagged Tnks-2 (873-1166 aa) (Homo sapiens, UniProt Q9H2K2); assay: TNKS2 activity ELISA (autoparsylation); format: biochemical; details: activity ELISA, 1 hour at 30° C; read-out: IC50 TNKS2 ELISA
T2 construct: GST-tagged Tnks-2 (873-1166 aa, prepared in-house); made in house
Description: (§4) Description of the TNKS1 and TNKS2 ELISA Assay
(§5) Biochemical Activity Testing of TNKS 1 and 2: Activity ELISA (Autoparsylation Assay)
(§6) For analysis of autoparsylation activity of TNKS 1 and 2 an activity ELISA is performed: In the first step GST tagged TNKS is captured on a Glutathione coated plate. Then the activity assay with biotinylated NAD is performed in the absence/presence of the compounds. During the enzymatic reaction GST tagged TNKS transfers biotinylated ADP-ribose to itself from biotinylated NAD as co-substrate. For the detection streptavidin-HRP conjugate is added that binds to the biotinylated TNKS and is thereby captured to the plates. The amount of biotinylated resp. autoparsylated TNKS is detected with a luminescence substrate for HRP. The level of the luminescence signal correlates directly with the amount of autoparsylated TNKS and therefore with activity of TNKS.
(§7) The activity ELISA is performed in 384 well Glutathione coated microtiter plates (Express capture Glutathione coated plate, Biocat, Heidelberg, Germany). The plates are pre-equilibrated with PBS. Then the plates are incubated with 50 μl 20 ng/well GST-tagged Tnks-1 (1023-1327 aa, prepared in-house), respectively GST-tagged Tnks-2 (873-1166 aa, prepared in-house) in assay buffer (50 mM HEPES, 4 mM Mg-chloride, 0.05% Pluronic F-68, 2 mM DTT, pH 7.7) overnight at 4° C. The plates are washed 3 times with PBS-Tween-20. The wells are blocked by incubation at room temperature for 20 minutes with 50 μl blocking buffer (PBS, 0.05% Tween-20, 0.5% BSA). Afterwards the plates are washed 3 times with PBS-Tween-20. The enzymatic reaction is performed in 50 μl reaction solution (50 mM HEPES, 4 mM Mg-chloride, 0.05% Pluronic F-68, 1.4 mM DTT, 0.5% DMSO, pH 7.7) with 10 μM bio-NAD (Biolog, Life science Inst., Bremen, Germany) as co-substrate in the absence or presence of the test compound (10 dilution concentrations) for 1 hour at 30° C. The reaction is stopped by 3 times washing with PBS-Tween-20. For the detection 50 μl of 20 ng/μl Streptavidin, HRP conjugate (MoBiTec, Göttingen, Germany) in PBS/0.05% Tween-20/0.01% BSA are added and the plates are incubated for 30 minutes at room temperature. After three times washing with PBS-Tween-20 50 μl of SuperSignal ELISA Femto Maximum sensitivity substrate solution (ThermoFisherScientific (Pierce), Bonn, Germany) are added. Following a 1 minute incubation at room temperature luminescence signals are measured with an Envision multimode reader (Perkin Elmer LAS Germany GmbH) at 700 nm. The full value used is the inhibitor-free reaction. The pharmacological zero value used is XAV-939 (Tocris) in a final concentration of 5 μM. The inhibitory values (IC50) are determined using either the program Symyx Assay Explorer® or Condosseo® from GeneData.

[3] = test system: Tankyrase (Axin2 level in DLD1 cells); assay: Cellular inhibition of Tankyrase, Axin2 Luminex assay in DLD1 cells; format: cell-based; details: Homo sapiens, DLD-1, 24 hours, Axin2 level increase, read-out: IC50 Cell assay
Description: Measurement of Cellular Inhibition of Tankyrase
Since Tankyrases have been described to modulate cellular level of Axin2 (Huang et al., 2009; Nature) the increase of Axin2 level is used as read-out for determination of cellular inhibition of Tankyrases in a Luminex based assay.
Cells of the colon carcinoma cell line DLD1 are plated in 96 well plates with 1.5×10^4 cells per well. Next day, cells are treated with a serial dilution of test compound in seven steps as triplicates with a final DMSO concentration of 0.3%. After 24 hours, cells are lysed in lysis buffer (20 mM Tris/HCl pH 8.0, 150 mM NaCl, 1% NP40, 10% Glycerol) and lysates are cleared by centrifugation through a 96 well filter plate (0.65 μm). Axin2 protein is isolated from cell lysates by incubation with a monoclonal anti-Axin2 antibody (R&D Systems #MAB6078) that is bound to fluorescent carboxybeads. Then, bound Axin2 is specifically detected with a polyclonal anti-Axin2 antibody (Cell Signaling #2151) and an appropriate PE-fluorescent secondary antibody. The amount of isolated Axin2 protein is determined in a Luminex^200 machine (Luminex Corporation) according to the manufacturer's instruction by counting 100 events per well. Inhibition of Tankyrase by test compounds results in higher levels of Axin2 which directly correlates with an increase of detectable fluorescence. As controls cells are treated with solvent alone (neutral control) and with a Tankyrase reference inhibitor IWR-2 (3E-06 M) which refers as control for maximum increase of Axin2. For analysis, the obtained data are normalized against the untreated solvent control and fitted for determination of the EC50 values using the Assay Explorer software (Accelrys).

[4] = target: T3, GST-tagged Tankyrase-2 (873-1166 aa) (Homo sapiens, UniProt Q9H2K2); assay: Tankyrase 2 autoparsylation HTRF enzyme assay; format: biochemical; details: HTRF autoparsylation, 90 min at 30° C; read-out: IC50 TNKS2 enzyme assay
T3 construct: GST-tagged Tankyrase-2 (873-1166 aa)
Description: as §1, §2, §3

[5] = target: T4, GST-tagged Tnks-1 (1023-1327 aa) (Homo sapiens, UniProt O95271); assay: TNKS1 activity ELISA (autoparsylation); format: biochemical; details: activity ELISA, 1 hour at 30° C; read-out: IC50 TNKS1 ELISA
T4 construct: GST-tagged Tnks-1 (1023-1327 aa, prepared in-house); made in house
Description: as §4, §5, §6, §7

DLD-1-cancer cells = details: Huang et al., 2009, Nature; cited from earlier work
β-catenin = details: Huang et al., 2009, Nature; by increasing AXIN1 and AXIN2 levels; cited from earlier work

T1 sequence (O95271 1023-1327): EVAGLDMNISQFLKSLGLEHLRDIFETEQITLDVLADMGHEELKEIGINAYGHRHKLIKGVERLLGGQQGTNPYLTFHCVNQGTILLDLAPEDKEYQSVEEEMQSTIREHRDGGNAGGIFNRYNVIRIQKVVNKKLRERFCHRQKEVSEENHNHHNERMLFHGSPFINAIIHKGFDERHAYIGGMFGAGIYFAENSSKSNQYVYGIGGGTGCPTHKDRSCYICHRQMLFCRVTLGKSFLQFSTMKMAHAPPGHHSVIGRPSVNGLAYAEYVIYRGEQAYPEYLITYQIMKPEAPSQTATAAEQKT
T4 sequence (O95271 1023-1327): as above
T2 sequence (Q9H2K2 873-1166): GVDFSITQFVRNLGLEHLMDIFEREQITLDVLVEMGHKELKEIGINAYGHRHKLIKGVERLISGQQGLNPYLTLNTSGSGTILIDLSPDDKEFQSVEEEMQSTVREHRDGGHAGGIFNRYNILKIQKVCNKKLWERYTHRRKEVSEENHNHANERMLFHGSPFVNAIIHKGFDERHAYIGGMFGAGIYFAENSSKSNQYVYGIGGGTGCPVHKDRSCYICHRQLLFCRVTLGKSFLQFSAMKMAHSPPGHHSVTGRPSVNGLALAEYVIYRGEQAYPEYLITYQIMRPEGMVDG
T3 sequence (Q9H2K2 873-1166): as above

Row | IC50 [1] [nM] | IC50 [2] [nM] | IC50 [3] [nM] | IC50 [4] [nM] | IC50 [5] [nM] | Compound | growth of DLD-1-cancer cells (DLD-1-cancer cells) | Wnt-stimulated accumulation of β-catenin (β-catenin)
1 | < 300 | < 300 | 3000 to 50000 | 300 to 3000 | < 300 | O=C(CCc1cccc(Cl)c1Cl)Nc1nncc2ccccc12 [Compound A17, 3-(2,3-dichloro-phenyl)-N-phthalazin-1-yl-propionamide] | – | –
2 | – | – | – | – | – | Oc1nc(-c2ccc(C(F)(F)F)cc2)nc2c1CSCC2 [XAV939] | inhibits growth | blocked
